According to the supplement of paper PMC10307832:

Tests used:
Assay in all cases: relative viability (nuclei count vs DMSO), 5 days (fraction); higher = more cells survive
[1] = system: NCI-H1944
Procedure, shortened: (§1)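 Relative viability is defined as nuclei in treated wells over nuclei in vehicle wells. Duplicate plates were run and medians reported. Lung cancer cell lines in 1536-well plates were dosed by pin tool one day after seeding, with one drug or with a fixed anchor-drug dose plus five library-drug doses (not always all listed) in √10 steps, and nuclei were counted after 5 days.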

[2] = system: HCC-44
Procedure, shortened: as §1

[3] = system: NCI-H322M
Procedure, shortened: as §1

[4] = system: NCI-H358
Procedure, shortened: as §1

[5] = system: ABC-1
Procedure, shortened: as §1

[6] = system: HCC-827
Procedure, shortened: as §1

[7] = system: NCI-H1793
Procedure, shortened: as §1

[8] = system: LU99A
Procedure, shortened: as §1

[9] = system: NCI-H1792
Procedure, shortened: as §1

[10] = system: ChaGo-K-1
Procedure, shortened: as §1

[11] = system: NCI-H2126
Procedure, shortened: as §1

[12] = system: NCI-H1395
Procedure, shortened: as §1

[13] = system: NCI-H1666
Procedure, shortened: as §1

[14] = system: NCI-H3122
Procedure, shortened: as §1

[15] = system: CAL-12T
Procedure, shortened: as §1

[16] = system: NCI-H2347
Procedure, shortened: as §1

[17] = system: LXF-289
Procedure, shortened: as §1

[18] = system: RERF-LC-KJ
Procedure, shortened: as §1

[19] = system: SK-LU-1
Procedure, shortened: as §1

[20] = system: NCI-H520
Procedure, shortened: as §1

[21] = system: NCI-H1755
Procedure, shortened: as §1

[22] = system: LCLC-103H
Procedure, shortened: as §1

Question: Which relative viability ([1]; first compound 0.001 µM) does the source give for `Cc1cn(-c2cc(NC(=O)c3ccc(C)c(Nc4nccc(-c5cccnc5)n4)c3)cc(C(F)(F)F)c2)cn1` [Nilotinib] + CCNC(=O)c1noc(-c2cc(C(C)C)c(O)cc2O)c1-c1ccc(CN2CCOCC2)cc1 [Luminespib] (partner 0.01 µM) here?
Answer: 0.627

Question: And the relative viability ([1]; first compound 0.003162 µM)?
Answer: 0.669

Question: What about the relative viability ([1]; first compound 0.01 µM) of the same compound?
Answer: 0.669

Question: What about the relative viability ([1]; first compound 0.03162 µM) of the same compound?
Answer: 0.694

Question: And the relative viability ([2]; first compound 0.001 µM)?
Answer: 0.845

Question: And the relative viability ([2]; first compound 0.003162 µM)?
Answer: 1.12

Question: What about the relative viability ([2]; first compound 0.01 µM) of the same compound?
Answer: 1.14

Question: And the relative viability ([2]; first compound 0.03162 µM)?
Answer: 0.943

Question: And the relative viability ([2]; first compound 0.1 µM)?
Answer: 0.833

Question: What about the relative viability ([3]; first compound 0.001 µM) of the same compound?
Answer: 1.08

Question: What about the relative viability ([3]; first compound 0.003162 µM) of the same compound?
Answer: 0.481

Question: And the relative viability ([3]; first compound 0.01 µM)?
Answer: 1.08

Question: What about the relative viability ([3]; first compound 0.03162 µM) of the same compound?
Answer: 0.797

Question: What about the relative viability ([3]; first compound 0.1 µM) of the same compound?
Answer: 1.02

Question: And the relative viability ([4]; first compound 0.001 µM)?
Answer: 0.286

Question: What about the relative viability ([4]; first compound 0.003162 µM) of the same compound?
Answer: 0.311

Question: And the relative viability ([4]; first compound 0.01 µM)?
Answer: 0.43

Question: What about the relative viability ([4]; first compound 0.03162 µM) of the same compound?
Answer: 0.188

Question: And the relative viability ([5]; first compound 0.001 µM)?
Answer: 0.508

Question: And the relative viability ([5]; first compound 0.003162 µM)?
Answer: 0.227

Question: What about the relative viability ([5]; first compound 0.01 µM) of the same compound?
Answer: 0.554

Question: What about the relative viability ([5]; first compound 0.03162 µM) of the same compound?
Answer: 1.28

Question: And the relative viability ([5]; first compound 0.1 µM)?
Answer: 0.252

Question: What about the relative viability ([6]; first compound 0.003162 µM) of the same compound?
Answer: 0.634

Question: And the relative viability ([6]; first compound 0.01 µM)?
Answer: 0.721

Question: What about the relative viability ([6]; first compound 0.03162 µM) of the same compound?
Answer: 0.563

Question: What about the relative viability ([6]; first compound 0.1 µM) of the same compound?
Answer: 0.542

Question: What about the relative viability ([7]; first compound 0.001 µM) of the same compound?
Answer: 0.158

Question: And the relative viability ([7]; first compound 0.003162 µM)?
Answer: 0.162

Question: What about the relative viability ([7]; first compound 0.01 µM) of the same compound?
Answer: 0.195

Question: What about the relative viability ([7]; first compound 0.03162 µM) of the same compound?
Answer: 0.168

Question: And the relative viability ([7]; first compound 0.1 µM)?
Answer: 0.166

Question: What about the relative viability ([8]; first compound 0.001 µM) of the same compound?
Answer: 0.227

Question: And the relative viability ([8]; first compound 0.01 µM)?
Answer: 0.274

Question: And the relative viability ([8]; first compound 0.03162 µM)?
Answer: 0.219

Question: And the relative viability ([8]; first compound 0.1 µM)?
Answer: 0.213

Question: What about the relative viability ([9]; first compound 0.003162 µM) of the same compound?
Answer: 0.417

Question: What about the relative viability ([9]; first compound 0.01 µM) of the same compound?
Answer: 0.545

Question: What about the relative viability ([9]; first compound 0.1 µM) of the same compound?
Answer: 0.266

Question: And the relative viability ([10]; first compound 0.001 µM)?
Answer: 0.416

Question: What about the relative viability ([10]; first compound 0.003162 µM) of the same compound?
Answer: 0.48

Question: And the relative viability ([10]; first compound 0.01 µM)?
Answer: 1.01

Question: What about the relative viability ([10]; first compound 0.03162 µM) of the same compound?
Answer: 0.531

Question: What about the relative viability ([10]; first compound 0.1 µM) of the same compound?
Answer: 0.666

Question: What about the relative viability ([11]; first compound 0.001 µM) of the same compound?
Answer: 0.832

Question: What about the relative viability ([11]; first compound 0.003162 µM) of the same compound?
Answer: 1

Question: And the relative viability ([11]; first compound 0.01 µM)?
Answer: 1.1

Question: And the relative viability ([11]; first compound 0.03162 µM)?
Answer: 0.936

Question: What about the relative viability ([11]; first compound 0.1 µM) of the same compound?
Answer: 0.596

Question: And the relative viability ([12]; first compound 0.001 µM)?
Answer: 0.713

Question: And the relative viability ([12]; first compound 0.003162 µM)?
Answer: 0.39

Question: And the relative viability ([12]; first compound 0.01 µM)?
Answer: 0.702

Question: And the relative viability ([12]; first compound 0.03162 µM)?
Answer: 0.713

Question: What about the relative viability ([12]; first compound 0.1 µM) of the same compound?
Answer: 0.814

Question: What about the relative viability ([13]; first compound 0.001 µM) of the same compound?
Answer: 1.02

Question: What about the relative viability ([13]; first compound 0.003162 µM) of the same compound?
Answer: 1.01

Question: What about the relative viability ([13]; first compound 0.01 µM) of the same compound?
Answer: 1.1

Question: What about the relative viability ([13]; first compound 0.03162 µM) of the same compound?
Answer: 0.999

Question: What about the relative viability ([13]; first compound 0.1 µM) of the same compound?
Answer: 1.17

Question: What about the relative viability ([14]; first compound 0.001 µM) of the same compound?
Answer: 0.109

Question: What about the relative viability ([14]; first compound 0.003162 µM) of the same compound?
Answer: 0.106

Question: And the relative viability ([14]; first compound 0.01 µM)?
Answer: 0.0956

Question: What about the relative viability ([14]; first compound 0.03162 µM) of the same compound?
Answer: 0.0805

Question: And the relative viability ([14]; first compound 0.1 µM)?
Answer: 0.047

Question: What about the relative viability ([15]; first compound 0.001 µM) of the same compound?
Answer: 0.66

Question: What about the relative viability ([15]; first compound 0.003162 µM) of the same compound?
Answer: 0.335

Question: What about the relative viability ([15]; first compound 0.01 µM) of the same compound?
Answer: 0.665

Question: What about the relative viability ([15]; first compound 0.03162 µM) of the same compound?
Answer: 0.222

Question: What about the relative viability ([15]; first compound 0.1 µM) of the same compound?
Answer: 0.212

Question: What about the relative viability ([16]; first compound 0.001 µM) of the same compound?
Answer: 0.344

Question: What about the relative viability ([16]; first compound 0.003162 µM) of the same compound?
Answer: 0.263

Question: And the relative viability ([16]; first compound 0.01 µM)?
Answer: 0.712

Question: What about the relative viability ([16]; first compound 0.03162 µM) of the same compound?
Answer: 0.589

Question: And the relative viability ([16]; first compound 0.1 µM)?
Answer: 0.598

Question: And the relative viability ([17]; first compound 0.001 µM)?
Answer: 0.655

Question: And the relative viability ([17]; first compound 0.003162 µM)?
Answer: 1.02

Question: And the relative viability ([17]; first compound 0.01 µM)?
Answer: 0.988

Question: What about the relative viability ([17]; first compound 0.03162 µM) of the same compound?
Answer: 0.573

Question: What about the relative viability ([17]; first compound 0.1 µM) of the same compound?
Answer: 0.649

Question: What about the relative viability ([18]; first compound 0.001 µM) of the same compound?
Answer: 1.3

Question: And the relative viability ([18]; first compound 0.003162 µM)?
Answer: 1.47

Question: And the relative viability ([18]; first compound 0.01 µM)?
Answer: 1.34

Question: What about the relative viability ([18]; first compound 0.03162 µM) of the same compound?
Answer: 0.946

Question: And the relative viability ([18]; first compound 0.1 µM)?
Answer: 1.22

Question: And the relative viability ([19]; first compound 0.001 µM)?
Answer: 0.19

Question: What about the relative viability ([19]; first compound 0.003162 µM) of the same compound?
Answer: 0.212

Question: What about the relative viability ([19]; first compound 0.03162 µM) of the same compound?
Answer: 0.215

Question: And the relative viability ([19]; first compound 0.1 µM)?
Answer: 0.217

Question: And the relative viability ([20]; first compound 0.001 µM)?
Answer: 0.308

Question: And the relative viability ([20]; first compound 0.01 µM)?
Answer: 0.244

Question: And the relative viability ([20]; first compound 0.03162 µM)?
Answer: 0.223

Question: And the relative viability ([20]; first compound 0.1 µM)?
Answer: 0.216

Question: And the relative viability ([21]; first compound 0.001 µM)?
Answer: 0.651

Question: And the relative viability ([21]; first compound 0.003162 µM)?
Answer: 0.418

Question: What about the relative viability ([21]; first compound 0.01 µM) of the same compound?
Answer: 0.396

Question: What about the relative viability ([21]; first compound 0.03162 µM) of the same compound?
Answer: 0.632

Question: What about the relative viability ([21]; first compound 0.1 µM) of the same compound?
Answer: 0.376

Question: What about the relative viability ([22]; first compound 0.001 µM) of the same compound?
Answer: 0.971

Question: What about the relative viability ([22]; first compound 0.003162 µM) of the same compound?
Answer: 1.3

Question: And the relative viability ([22]; first compound 0.01 µM)?
Answer: 1.33

Question: What about the relative viability ([22]; first compound 0.03162 µM) of the same compound?
Answer: 0.927

Question: And the relative viability ([22]; first compound 0.1 µM)?
Answer: 0.919
